Patent US6790825B2, “Method of using secretin and compositions made therefrom for the treatment of autism and other neurological, behavioral and immunological disorders” (Repligen Corporation, priority 1997, dated 2004)
Entries after “also recorded” stand apart in the source; their conditions may differ. No end group written: not given here.

Legend:
[1] = tested on: patient, a child with symptoms of autism; test: Intravenous secretin infusion in a child with symptoms of autism (Example 1): behavioral and biomedical changes; format: in vivo, human
Text: The present invention will be better understood from the following examples which are given by way of illustration and not by way of limitation. The patient, the same in both examples, is a child with symptoms of autism.
The patient in the present examples developed normally […], with the exception of gastrointestinal problems (i.e., chronic diarrhea and constipation) which began at about six months. At about thirteen months, when whole milk was introduced into their diet, the patient began having reoccurring ear infections. At about fourteen months, the patient appeared to lose the ability to process language, first receptively (at about 14 months) then expressively (at about 16 months). The patient also experienced episodes of “shivers” that appeared to be intermittent seizures.
After consulting with numerous neurologists, pediatricians, child development specialists, audiologists, endocrinologists, allergists, and other medical professionals, no consistent diagnosis had been reached. […] The term autism is used herein for reference purposes only, and this invention is intended to apply to any number of pervasive developmental disorders as well as neurological and immunological disorders.
(§1) When the patient was […], the secretin was administered by way of an infusion as part of an upper gastrointestinal endoscopy. The secretin was used in this diagnostic procedure at the request of the patient's parents, one of which is an inventor of the present invention. The secretin used in this procedure is known as Secretin-Ferring available from Ferring Laboratories, Inc., Suffern, N.Y. (See Appendix A). The secretin was dissolved in a […] solution of sodium chloride and administered in a dosage of 2 clinical units (CU) per kilogram (kg) body weight by intravenous injection over one minute. (I.E. 30 IU IV for approximately 15 kilograms of body weight.)
(§2) The diagnostic tests performed on the patient during this procedure also indicated gastric inflammation. […] The following Table I summarizes the improvements observed in the patient within 3 weeks after the infusion of secretin.
Biomedical changes were also measured in the patient.
At the request of the patient's parents, a second infusion of secretin was performed about 9 months after the first infusion, and a third infusion of secretin was performed about three months after the second infusion.

[2] = tested on: pancreas; test: Pancreatic juice release after secretin infusion during upper gastrointestinal endoscopy (Example 1); format: in vivo, human; conditions: immediately after 2 CU/kg i.v. over one minute; usual rate 1-2 ml/min
Method: as §1, §2

[3] = tested on: patient, a child with symptoms of autism; test: Daily transdermal secretin with DMSO in the same patient (Example 2); format: in vivo, human
Method: At the time of this treatment, the patient was […]. Secretin was administered transdermally using pharmaceutical grade dimethyl sulfoxide (DMSO) (generally 99.9% pure) available from Clinic Service Co., Box 2512, Hemet Calif. 92543. The secretin (Secretin-Ferring) was administered daily in a dosage of about 75 CU over a five day period (i.e., about 15 CU daily). For each treatment, about 4 drops of DMSO were placed onto the skin of the patient, about 15 CU of the crystalline secretin was placed onto the DMSO, and the composition was rubbed into the skin.

[4] = tested on: abnormal opioid peptides; conditions: autistic children that responded to casein free and gluten free diet; measured before and after infusion; cited from earlier work

Substance: secretin (HSDGTFTSELSRLRDSARLQRLLQGLV-NH2; ends and bridges not checked; UniProt P63298 33-59, looked up) [polypeptide hormone secreted by the mucosa of the duodenum and upper jejunum; used as Secretin-Ferring from Ferring Laboratories]
- SPECT scan: perfusion of the right posterior parietal and right temporal lobes (blood flow in the brain) ([1]; after the infusion): improved; also recorded: increased blood flow in the brain
- Measles, mumps and rubella antibodies ([1]; after the secretin administration in Example 1): reduction of measles, mumps and rubella antibodies
- Rubella titers ([1]; after the treatment, dropped from 5.8 before): 2.3
- Rate of the patient's progress ([1]; at about 5 weeks after the first infusion, behavioral improvements continued): appeared to decrease
- Progress within 3 weeks after the secretin infusion: bowel movements ([1]; before infusion: Abnormal bowel movements, 2 CU/kg i.v.): Normal bowel movements.
- Progress within 3 weeks after the secretin infusion: sleeping problems ([1]; before infusion: Consistent sleeping problems, up numerous times each night, 2 CU/kg i.v.): Has slept through almost every night
- Progress within 3 weeks after the secretin infusion: toilet training ([1]; before infusion: Diapers only, 2 CU/kg i.v.): Completely potty trained.
- Progress within 3 weeks after the secretin infusion: imitation of commands ([1]; before infusion: Did not imitate commands, 2 CU/kg i.v.): Will imitate almost any multi-step
- Progress within 3 weeks after the secretin infusion: spinning episodes ([1]; before infusion: Infrequent (1-2 times/week) spinning episodes, 2 CU/kg i.v.): No spinning episodes.
- Progress within 3 weeks after the secretin infusion: diet preferences ([1]; before infusion: Limited Diet Preferences, 2 CU/kg i.v.): No Change
- Progress within 3 weeks after the secretin infusion: eye contact ([1]; before infusion: Minimal eye contact, 2 CU/kg i.v.): Eye contact 75% of the time.
- Progress within 3 weeks after the secretin infusion: connections between language and objects ([1]; before infusion: No apparent connections made, 2 CU/kg i.v.): Many connections made between
- Progress within 3 weeks after the secretin infusion: flash cards ([1]; before infusion: No flash cards, 2 CU/kg i.v.): 40-50 flash cards.
- Progress within 3 weeks after the secretin infusion: interest in drawing ([1]; before infusion: No interest in drawing, 2 CU/kg i.v.): Wants to draw constantly. Will draw
- Progress within 3 weeks after the secretin infusion: response to request for gestures ([1]; before infusion: No response, 2 CU/kg i.v.): Responds to all kinds of things
- Progress within 3 weeks after the secretin infusion: sentences ([1]; before infusion: No sentences, 2 CU/kg i.v.): Short sentences - such as; “I love you”,
- Progress within 3 weeks after the secretin infusion: words spoken ([1]; before infusion: Two words, 2 CU/kg i.v.): 100's of words - will repeat some
- Progress within 3 weeks after the secretin infusion: interaction with videos ([1]; before infusion: Watch Videos, 2 CU/kg i.v.): Now, gets “involved” interactively
- Serotonin levels in blood ([1]; blood tests after the treatment): rise in serotonin levels; also recorded: increase in serotonin levels
- Progress within 3 weeks after the secretin infusion: water consumption ([1]; no change, before infusion: excessive, approximately 50 cups per day, 2 CU/kg i.v.): change approximately 50 cups per cups per day
- Results of second and third infusions ([1]; second about 9 months after the first, third about three months after the second): achieved the same results
- Chronic abnormal bowel movements ([1]; within days after administration, no change of diet): became normal
- Amount of pancreatic juice released [2]: approximately 10 ml/min
- Improvements in the patient on daily transdermal administration ([3]; about 15 CU daily with about 4 drops DMSO rubbed into the skin, compared with infusion): even more dramatic and significant improvements
- Effect of stopping the daily dose ([3]; daily transdermal dose stopped): autistic behavioral symptoms return
- Language progress ([3]; within about 6 months, about 15 CU daily transdermally with DMSO): progressed to spontaneous and conversational language
- Abnormal opioid peptides after the secretin infusion [4]: disappeared
